Key:
[1] = molecular target: ER (endogenous, MCF7 cells) (Homo sapiens (Human), UniProt P03372); test: ER transcription assay (MCF7 cells), ERE-luciferase reporter; type: cell-based; conditions: inflection point of the inhibition of transcription in MCF7 cells; 0.1 nM estradiol, 24 hours; read-out: MCF7 IC50
Description: ER Transcription Assay (MCF7 Cells)
The ER transcription assay is a reporter assay that is based on the ability of ER to induce transcription from a luciferase reporter gene containing estrogen response elements (EREs) in the promoter/enhancer region. When the reporter gene is transfected in MCF7 cells (containing endogenous ER), transcription is reflected by the level of luciferase expression.
A day before transfection, cells are split into a T75 flask at a cell density of 300,000 cells/mL (10 mL total) and allowed to attach overnight in a humidified CO2 incubator at 37° C.
Approximately 20 ug DNA is mixed in OptiMEM (Invitrogen) to a total volume of 650 μL. Following incubation, the OptiMEM-DNA mixture is added to the OptiMEM-Lipofectin mix and incubated for 15 minutes at 37° C. The DNA-Lipofectin mixture is then added directly to the T75 flask and the flask is returned to the incubator.
Normally, DMSO (used as a vehicle) is included to achieve a final concentration of 0.1% when added to the cells. Transfected cells are trypsinized, resuspended in DMEM/F12/10% charcoal-stripped serum and added to the 96-well plate at 25,000 cells/well in 90 μL of media. The plate is then returned to the incubator for 24 hours.
After incubation with compounds for 24 hours, Firefly and Renilla luciferase activities are measured to determine ER transcriptional activity. Media is removed from 96-well plates by decanting and blotting on paper towels.
One second total read time after a one second delay.
One second total read time after one second delay. If Firefly luciferase signal is high, Renilla assay must be done an hour after the Firefly assay due to incomplete squelching of Firefly signal.
(§1) The column titled MCF7 IC50 reports the inflection point of the inhibition of transcription in MCF7 cells as described above. Percentage ERα remaining reports the remaining ERα protein measured at 10 μM concentration of the ligand as described above. The column ERα IC50 reports the inflection point of the degradation in response to the ligand concentration.

ERα = ERα (Homo sapiens (Human), UniProt P03372); test: ERα degradation (MCF7 cells), in-cell Western; type: cell-based; conditions: for IC50: inflection point of the degradation in response to ligand concentration; for IC50 / % ERα remaining: MCF7 cells; for % ERα remaining: remaining ERα protein at 10 μM ligand, relative to DMSO control; for ER Percentage remaining: degradation potential
Sequence of ERα (P03372 whole entry): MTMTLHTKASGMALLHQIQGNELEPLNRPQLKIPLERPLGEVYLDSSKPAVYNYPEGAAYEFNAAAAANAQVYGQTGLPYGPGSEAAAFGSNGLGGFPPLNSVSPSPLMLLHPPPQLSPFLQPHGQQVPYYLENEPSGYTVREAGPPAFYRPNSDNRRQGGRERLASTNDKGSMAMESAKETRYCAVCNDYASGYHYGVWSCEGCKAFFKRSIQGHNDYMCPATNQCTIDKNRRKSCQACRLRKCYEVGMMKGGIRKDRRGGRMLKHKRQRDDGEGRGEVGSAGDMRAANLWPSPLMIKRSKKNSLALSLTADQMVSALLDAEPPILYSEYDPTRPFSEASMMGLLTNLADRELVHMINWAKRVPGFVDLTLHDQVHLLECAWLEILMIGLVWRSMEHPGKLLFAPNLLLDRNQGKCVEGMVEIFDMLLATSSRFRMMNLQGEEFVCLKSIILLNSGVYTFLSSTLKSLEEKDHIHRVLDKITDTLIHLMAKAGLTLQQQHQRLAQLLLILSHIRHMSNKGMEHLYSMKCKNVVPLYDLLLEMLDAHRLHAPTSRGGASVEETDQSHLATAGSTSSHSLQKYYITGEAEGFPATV
Protocol: ERα Degradation (MCF7 Cells)
as §1

Sequence of ER (endogenous, MCF7 cells) (P03372 whole entry): as above

SMILES	IC50 [1]	IC50 (ERα)	% ERα remaining (ERα)	ER Percentage remaining (ERα; comparison of X position)	ER Percentage remaining (ERα; comparison of linker length between phenyl and -C(O)OH)
[C-]#[N+]c1ccccc1-c1sc2cc(O)ccc2c1Oc1ccc(/C=C/C(=O)O)cc1 [Example 24, (E)-3-(4-((6-hydroxy-2-(2-isocyanophenyl)-benzo[b]thiophen-3-yl)oxy)phenyl)acrylic acid]	2580 nM	33 nM	22%	–	–
COC(=O)/C=C/c1ccc(Oc2c(-c3ccc(O)c(C)c3)sc3cc(O)ccc23)cc1 [Example 41, (E)-methyl 3-(4-((6-hydroxy-2-(4-hydroxy-3-methylphenyl)-benzo[b]thiophen-3-yl)oxy)phenyl)acrylate]	10000 nM	–	32%	–	–
CCOC(=O)/C=C/c1ccc(Oc2c(-c3ccc(O)cc3)sc3cc(O)ccc23)cc1OC [Example 43, (E)-ethyl 3-(4-((6-hydroxy-2-(4-hydroxyphenyl)benzo[b]thiophen-3-yl)oxy)-2-methoxyphenyl)acrylate]	10000 nM	–	41%	–	–
COC(=O)/C=C/c1ccc(Oc2c(-c3ccccc3)sc3cc(O)ccc23)cc1 [Example 44, (E)-methyl 3-(4-((6-hydroxy-2-phenylbenzo[b]thiophen-3-yl)oxy)phenyl)-acrylate]	10000 nM	–	25%	–	–
COC(=O)/C=C/c1ccc(Oc2c(-c3ccccc3C(C)C)sc3cc(O)ccc23)cc1 [Example 45, (E)-methyl 3-(4-((6-hydroxy-2-(2-isopropylphenyl)benzo[b]thiophen-3-yl)oxy)phenyl)acrylate]	23 nM	–	30%	–	–
CNC(=O)/C=C/c1ccc(Oc2c(-c3ccc(O)c(F)c3)sc3cc(O)ccc23)cc1 [Example 69, (E)-3-(4-((2-(3-fluoro-4-hydroxyphenyl)-6-hydroxybenzo[b]thiophen-3-yl)oxy)phenyl)-N-methylacrylamide]	185 nM	24 nM	26%	–	–
CNC(=O)/C=C/c1ccc(Oc2c(-c3ccc(C(F)(F)F)cc3)sc3cc(O)ccc23)cc1 [Example 70, (E)-3-(4-((6-hydroxy-2-(4-(trifluoromethyl)phenyl)benzo[b]thiophen-3-yl)oxy)phenyl)-N-methylacrylamide]	41 nM	9 nM	32%	–	–
CNC(=O)/C=C/c1ccc(Oc2c(-c3ccc(O)cc3)sc3cc(O)ccc23)cn1 [Example 71, (E)-3-(5-((6-hydroxy-2-(4-hydroxyphenyl)benzo[b]thiophen-3-yl)oxy)pyridin-2-yl)-N-methylacrylamide]	269 nM	–	41%	–	–
Oc1ccc(-c2sc3cc(O)ccc3c2Oc2ccc(/C=C/c3c[nH]cn3)cc2)cc1 [Example 72, (E)-3-(4-(2-(1H-imidazol-4-yl)vinyl)phenoxy)-2-(4-hydroxyphenyl)benzo[b]thiophen-6-ol]	53 nM	11 nM	39%	–	–
Cn1cnc(/C=C/c2ccc(Oc3c(-c4ccc(O)cc4)sc4cc(O)ccc34)cc2)c1 [Example 73, (E)-2-(4-hydroxyphenyl)-3-(4-(2-(1-methyl-1H-imidazol-4-yl)vinyl)phenoxy)benzo[b]thiophen-6-ol]	125 nM	17 nM	47%	–	–
CCCn1cnc(/C=C/c2ccc(Oc3c(-c4ccc(O)cc4)sc4cc(O)ccc34)cc2)c1 [Example 74, (E)-2-(4-hydroxyphenyl)-3-(4-(2-(1-propyl-1H-imidazol-4-yl)vinyl)phenoxy)benzo [b]thiophen-6-ol]	58 nM	10 nM	32%	–	–
CN(C)Cc1ccccc1-c1sc2cc(O)ccc2c1Oc1ccc(/C=C/C(=O)O)cc1 [Example 77, (E)-3-(4-((2-(2-((dimethylamino)methyl)phenyl)-6-hydroxybenzo[b]thiophen-3-yl)oxy)phenyl)acrylic acid]	44 nM	1.4 nM	15%	–	–
CC(=O)/C=C/c1ccc(Oc2c(-c3ccccc3C(C)C)sc3cc(O)ccc23)cc1 [Example 78, (E)-4-(4-((6-hydroxy-2-(2-isopropylphenyl)benzo[b]thiophen-3-yl)oxy)phenyl)but-3-en-2-one]	6 nM	–	72%	–	–
O=C(O)/C=C/c1ccc(Oc2c(-c3ccccc3C(F)F)sc3cc(O)ccc23)cc1 [Example 79, (E)-3-(4-((2-(2-(difluoromethyl)phenyl)-6-hydroxybenzo [b]thiophen-3-yl)oxy)phenyl)acrylic acid]	52 nM	4.2 nM	17%	–	–
COCc1ccccc1-c1sc2cc(O)ccc2c1Oc1ccc(/C=C/C(=O)O)cc1 [Example 80, (E)-3-(4-((6-hydroxy-2-(2-(methoxymethyl)phenyl)benzo[b]thiophen-3-yl)oxy)phenyl)acrylic acid]	–	–	14%	–	–
CC(C)OC(=O)/C=C/c1ccc(Oc2c(-c3ccccc3C(C)C)sc3cc(O)ccc23)cc1 [Example 81, (E)-isopropyl 3-(4-((6-hydroxy-2-(2-isopropylphenyl)benzo[b]thiophen-3-yl)oxy)phenyl)acrylate]	320 nM	–	29%	–	–
CC(=O)Oc1ccc2c(Oc3ccc(/C=C/C(=O)O)cc3)c(-c3ccccc3C(C)C)sc2c1 [Example 82, (E)-3-(4-((6-acetoxy-2-(2-isopropylphenyl)benzo[b]thiophen-3-yl)oxy)phenyl)acrylic acid]	11 nM	–	21%	–	–
COCCC(=O)Oc1ccc2c(Oc3ccc(/C=C/C(=O)O)cc3)c(-c3ccccc3C(C)C)sc2c1 [Example 83, (E)-3-(4-((2-(2-isopropylphenyl)-6-((3-methoxypropanoyl)oxy)benzo[b]thiophen-3-yl)oxy)phenyl)acrylic acid]	15 nM	–	13%	–	–
Cc1cc(F)ccc1-c1sc2cc(O)ccc2c1Oc1ccc(/C=C/c2nnc(C)n2C)cc1 [Example 106, (E)-3-(4-(2-(4,5-dimethyl-4H-1,2,4-triazol-3-yl)vinyl)phenoxy)-2-(4-fluoro-2-methylphenyl)benzo[b] thiophen-6-ol]	–	–	17%	–	–
CCc1cccc(CC)c1-c1sc2cc(O)ccc2c1Oc1ccc(/C=C/C(=O)O)cc1 [Example 130, (E)-3-(4-((2-(2,6-diethylphenyl)-6-hydroxybenzo[b]thiophen-3-yl)oxy)phenyl)acrylic acid]	–	–	12%	–	–
CCCc1nnc(/C=C/c2ccc(Oc3c(-c4ccc(F)cc4C)sc4cc(O)ccc34)cc2)o1 [compound 47, (E)-2-(4-fluoro-2-methylphenyl)-3-(4-(2-(5-propyl-1,3,4-oxadiazol-2-yl)vinyl)phenoxy)benzo [b]thiophen-6-ol]	–	–	43%	–	–
Cn1nnc(/C=C/c2ccc(Oc3c(-c4ccc(O)cc4)sc4cc(O)ccc34)cc2)n1 [compound 55, (E)-2-(4-hydroxyphenyl)-3-(4-(2-(2-methyl-2H-tetrazol-5-yl)vinyl)-phenoxy)benzo[b] thiophen-6-ol]	–	34 nM	33%	–	–
O=C(O)/C=C/c1ccc(Oc2c(-c3ccc(O)cc3)sc3cc(O)ccc23)cc1 [drawing 5]	–	–	–	41 Percentage	–
O=C(O)/C=C/c1ccc(Oc2c(-c3ccc(O)cc3)sc3cc(O)ccc23)cc1 [drawing 8]	–	–	–	–	41 Percentage
O=C(O)/C=C/c1ccc(-c2c(-c3ccc(O)cc3)sc3cc(O)ccc23)cc1 [reference compound]	–	–	–	76 Percentage	–
O=C(O)/C=C/c1ccc(C(=O)c2c(-c3ccc(O)cc3)sc3cc(O)ccc23)cc1 [reference compound]	–	–	–	60 Percentage	–

— patent US10058534B2, “Benzothiophene derivatives and compositions thereof as selective estrogen receptor degraders” (NOVARTIS AG, priority 2013, dated 2018)
